Source: patent publication US10358672B2, “7-β-hydroxysteroid dehydrogenase mutants and process for the preparation of ursodeoxycholic acid” (Pharmazell GmbH, priority 2014, dated 2019)

How the values were obtained:
[1] = target: T1, Collinsella aerofaciens 7β-HSDH dual mutant [G39S/R64E], with His tag, SEQ ID NO:6 (Collinsella aerofaciens, UniProt A4ECA9, G39S/R64E); assay: Michaelis-Menten kinetics, purified 7β-HSDH [G39S/R64E]
T1 sequence (A4ECA9 with tags, fused parts or gaps G39S/R64E): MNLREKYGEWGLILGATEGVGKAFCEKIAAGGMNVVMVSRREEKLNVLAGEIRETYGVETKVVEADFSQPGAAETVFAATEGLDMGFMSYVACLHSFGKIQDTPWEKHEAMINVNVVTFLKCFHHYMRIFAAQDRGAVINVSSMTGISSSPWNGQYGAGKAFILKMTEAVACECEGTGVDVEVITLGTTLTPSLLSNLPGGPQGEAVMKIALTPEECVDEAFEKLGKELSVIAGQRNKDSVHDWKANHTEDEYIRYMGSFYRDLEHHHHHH

[2] = target: 7β-HSDH obtainable from Collinsella aerofaciens DSM 3979 (Collinsella aerofaciens, UniProt A4ECA9); conditions: cited from earlier work
[3] = target: T2, Collinsella aerofaciens 7β-HSDH mutant [R64E], with His tag, SEQ ID NO:4 (Collinsella aerofaciens, UniProt A4ECA9, R64E); assay: Michaelis-Menten kinetics, purified 7β-HSDH [R64E]; conditions: in comparison with the wild type
T2 sequence (A4ECA9 with tags, fused parts or gaps R64E): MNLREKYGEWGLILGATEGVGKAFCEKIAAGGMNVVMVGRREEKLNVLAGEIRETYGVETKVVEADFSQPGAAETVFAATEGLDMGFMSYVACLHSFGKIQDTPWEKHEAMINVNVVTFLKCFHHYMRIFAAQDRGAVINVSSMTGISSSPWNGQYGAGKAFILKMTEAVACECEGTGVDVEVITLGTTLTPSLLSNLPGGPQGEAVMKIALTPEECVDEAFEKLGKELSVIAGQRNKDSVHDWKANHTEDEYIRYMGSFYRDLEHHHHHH
From the text: In this manner, all the enzymes have been isolated and characterized.
The His-tag allows for very simple purification of the HSDH protein since this sequence is bound with high specificity by specific chromatographic material (NTA (Ninitrilotriacetate)-modified support material, loaded with divalent nickel ions, for example “His Pur Ni-NTA” (Nimagen B. V., Nijmegen, The Netherlands)). To this end, the cell-free crude extract is applied to a dropping column comprising this material, which dropping column has previously been equilibrated with the disruption buffer (3 to 5 column volumes). Weakly binding protein was removed by washing with 3 to 5 column volumes of wash buffer (20 mM imidazole, 50 mM sodium phosphate, 300 mM NaCl, pH 8). […] The process was carried out at room temperature. The imidazole which was present was to be removed by buffer exchange.

[4] = target: Collinsella aerofaciens 7β-HSDH mutant [T17F] (Collinsella aerofaciens, UniProt A4ECA9, T17F); format: biochemical; conditions: in comparison with the wild type
Chain of Collinsella aerofaciens 7β-HSDH mutant [T17F] (A4ECA9 1-263 with tags or gaps T17F): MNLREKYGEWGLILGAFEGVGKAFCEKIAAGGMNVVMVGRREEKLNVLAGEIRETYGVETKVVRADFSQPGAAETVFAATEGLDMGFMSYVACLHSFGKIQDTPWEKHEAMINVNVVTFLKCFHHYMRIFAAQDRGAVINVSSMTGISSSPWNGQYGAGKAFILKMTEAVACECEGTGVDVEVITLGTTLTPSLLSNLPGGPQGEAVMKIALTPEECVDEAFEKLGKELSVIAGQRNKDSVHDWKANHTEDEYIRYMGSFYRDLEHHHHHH

[5] = target: T3, Collinsella aerofaciens 7β-HSDH mutant [G39S], with His tag, SEQ ID NO:5 (Collinsella aerofaciens, UniProt A4ECA9, G39S); assay: Michaelis-Menten kinetics, purified 7β-HSDH [G39S]; conditions: in comparison with the wild type
T3 sequence (A4ECA9 with tags, fused parts or gaps G39S): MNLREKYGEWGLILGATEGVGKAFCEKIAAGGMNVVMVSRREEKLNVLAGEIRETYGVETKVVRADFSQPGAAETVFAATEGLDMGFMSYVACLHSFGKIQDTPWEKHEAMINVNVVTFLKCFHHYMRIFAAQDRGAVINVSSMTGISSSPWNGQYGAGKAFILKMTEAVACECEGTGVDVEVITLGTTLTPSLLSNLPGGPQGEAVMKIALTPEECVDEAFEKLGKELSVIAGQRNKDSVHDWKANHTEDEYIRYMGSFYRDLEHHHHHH
Procedure: The kinetic parameter constants vmax and KM were determined with purified enzyme.

[6] = test system: Collinsella aerofaciens DSM 3979 (ATCC 25986) 7β-HSDH, wild type, SEQ ID NO:2; conditions: cited from earlier work
[7] = substrate: C[C@H](CCC(=O)O)[C@H]1CC[C@H]2[C@@H]3C(=O)C[C@@H]4CC(=O)CC[C@]4(C)[C@H]3CC(=O)[C@]12C; assay: purified protein, by the assay type; conditions: other: purified enzyme, 340 nm, 50 mM KPi pH 8.0, substrate DHCA / cofactor NADPH
[8] = substrate: NC(=O)C1=CN([C@@H]2O[C@H](COP(=O)(O)OP(=O)(O)OC[C@H]3O[C@@H](n4cnc5c(N)ncnc54)[C@H](OP(=O)(O)O)[C@@H]3O)[C@@H](O)[C@H]2O)C=CC1; assay: purified protein, by the assay type; conditions: other: purified enzyme, 340 nm, 50 mM KPi pH 8.0, substrate DHCA / cofactor NADPH
[9] = Photometric activity determination of 7β-HSDH and mutants (decrease in absorbance at 340 nm, DHCA reduction with NADPH); format: biochemical; conditions: Table 10, dual mutant versus wild type
Procedure: The activity of the 7β-HSDH and of the mutants was determined using a photometric assay, where the decrease in absorbance was measured at 340 nm over a period of 30 seconds.
The expression [R64E] in the first column of the table means that the arginine (R) in position 64 of the protein sequence had been replaced by glutamic acid (E) in the mutant in question. The respective amino acid is abbreviated using the international one-letter code. Analogously, [R64D] means that an aspartic acid has been introduced at this position.

[10] = Cofactor specificity of 7β-HSDH types (compilation of improvements); format: biochemical

## C[C@H](CCC(=O)O)[C@H]1CC[C@H]2[C@@H]3C(=O)C[C@@H]4CC(=O)CC[C@]4(C)[C@H]3CC(=O)[C@]12C [DHCA, dehydrocholic acid]
[1]; in comparison with the wild type
  Vmax (DHCA), improvement: +7-fold better
[1]; in words, course of kinetics in FIG. 6
  substrate inhibition: no longer demonstrates a substrate inhibition
[1]; in words, in comparison with the wild type
  Substrate inhibition Ki: ++eliminated
[2]
  kcat: 875.35
[3]
  Vmax (DHCA), improvement: +5-fold better
[3]; in words
  Substrate inhibition Ki: +reduced
[4]
  Vmax (DHCA), improvement: +5-fold better
[5]
  Vmax (DHCA), improvement: +6-fold better
[5]; in words
  Substrate inhibition Ki: +reduced

## NC(=O)c1ccc[n+]([C@@H]2O[C@H](COP(=O)([O-])OP(=O)(O)OC[C@H]3O[C@@H](n4cnc5c(N)ncnc54)[C@H](OP(=O)(O)O)[C@@H]3O)[C@@H](O)[C@H]2O)c1 [NADP^+]
[2]
  Vmax: 30.58 U/mg Protein
  kcat: 944.95
[6]
  kcat: 944.95

B1: Collinsella aerofaciens 7β-HSDH (WT), with C-terminal His tag, SEQ ID NO:3 (Collinsella aerofaciens ATCC 25986) (protein)
chain: MNLREKYGEWGLILGATEGVGKAFCEKIAAGGMNVVMVGRREEKLNVLAGEIRETYGVETKVVRADFSQPGAAETVFAATEGLDMGFMSYVACLHSFGKIQDTPWEKHEAMINVNVVTFLKCFHHYMRIFAAQDRGAVINVSSMTGISSSPWNGQYGAGKAFILKMTEAVACECEGTGVDVEVITLGTTLTPSLLSNLPGGPQGEAVMKIALTPEECVDEAFEKLGKELSVIAGQRNKDSVHDWKANHTEDEYIRYMGSFYRDLEHHHHHH
[7]
  Km: 20.5 ± 2.9 µM
  Vmax: 8.7 µmol/min/mg
[8]
  Km: 15.2 ± 2.2 µM
  Vmax: 8.8 µmol/min/mg

B2: 7β-HSDH [G39S/R64E]: 7β-HSDH dual mutant, positions 39 ([G39S]) and 64 ([R64E]) modified at the same time; His tag, SEQ ID NO:6 (protein)
chain: MNLREKYGEWGLILGATEGVGKAFCEKIAAGGMNVVMVSRREEKLNVLAGEIRETYGVETKVVRADFSQPGAAETVFAATEGLDMGFMSYVACLHSFGKIQDTPWEKHEAMINVNVVTFLKCFHHYMRIFAAQDRGAVINVSSMTGISSSPWNGQYGAGKAFILKMTEAVACECEGTGVDVEVITLGTTLTPSLLSNLPGGPQGEAVMKIALTPEECVDEAFEKLGKELSVIAGQRNKDSVHDWKANHTEDEYIRYMGSFYRDLEHHHHHH
modifications: His tag; 7-beta-HSDH G39S/R64E Mutant
[9]
  Specific activity: 57.5 U/mg
  Volumetric activity: 1115.0 U/ml
[10]
  Cofactor specificity: NADPH
